Measurements taken from patent EP3820574B1, “3-(5-AMINO-1-OXOISOINDOLIN-2-YL)PIPERIDINE-2,6-DIONE DERIVATIVES AND THEIR USE IN THE TREATMENT OF IKAROS FAMILY ZINC FINGER 2 (IKZF2)-DEPENDENT DISEASES” (Novartis AG, priority 2018, dated 2020).

Legend:
IKZF2 = IKZF2 (Homo sapiens, UniProt Q96SW2+Q9UKS7); assay: Prolabel quantification of IKZF2 protein levels in 293GT cells; settings: for inhibition at 10 µM: read-out: IKZF2 % protein reduction at 10 µM, 24 h; for DC50: read-out: IKZF2 EC50, Helios (IKZF2) degradation, prolabel-tagged fusion protein in 293GT cells, highest concentration 50 µM
IKZF2, sequence (Q9UKS7 whole entry, the tested form may be a part): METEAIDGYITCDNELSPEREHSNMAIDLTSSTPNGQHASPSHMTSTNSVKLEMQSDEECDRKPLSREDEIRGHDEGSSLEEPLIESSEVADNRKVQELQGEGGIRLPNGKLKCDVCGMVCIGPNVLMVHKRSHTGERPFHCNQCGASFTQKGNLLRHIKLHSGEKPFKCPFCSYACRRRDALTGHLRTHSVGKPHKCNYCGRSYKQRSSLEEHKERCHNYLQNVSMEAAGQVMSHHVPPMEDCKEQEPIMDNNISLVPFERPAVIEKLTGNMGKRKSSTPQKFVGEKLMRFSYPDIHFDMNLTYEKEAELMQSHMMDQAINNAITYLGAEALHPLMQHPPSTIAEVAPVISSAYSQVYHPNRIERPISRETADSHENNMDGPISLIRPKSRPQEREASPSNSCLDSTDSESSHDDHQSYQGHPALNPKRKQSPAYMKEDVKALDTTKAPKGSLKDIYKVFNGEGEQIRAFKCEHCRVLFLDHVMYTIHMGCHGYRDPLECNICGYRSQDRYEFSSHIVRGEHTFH
IKZF2, sequence (Q96SW2 whole entry, the tested form may be a part): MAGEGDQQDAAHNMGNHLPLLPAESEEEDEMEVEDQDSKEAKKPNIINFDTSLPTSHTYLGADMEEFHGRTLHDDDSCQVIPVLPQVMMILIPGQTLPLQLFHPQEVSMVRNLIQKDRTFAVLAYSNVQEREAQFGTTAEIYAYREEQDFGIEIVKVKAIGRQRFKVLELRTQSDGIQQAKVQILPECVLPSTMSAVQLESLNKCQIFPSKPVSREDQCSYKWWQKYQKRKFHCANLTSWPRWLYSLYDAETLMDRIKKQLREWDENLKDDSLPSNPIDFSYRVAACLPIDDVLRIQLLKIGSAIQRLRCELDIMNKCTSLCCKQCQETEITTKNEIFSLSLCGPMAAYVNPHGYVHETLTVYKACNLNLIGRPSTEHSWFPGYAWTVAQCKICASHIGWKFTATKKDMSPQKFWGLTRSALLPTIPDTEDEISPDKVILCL
IKZF2, sequence (Q16531 whole entry partner, the tested form may be a part): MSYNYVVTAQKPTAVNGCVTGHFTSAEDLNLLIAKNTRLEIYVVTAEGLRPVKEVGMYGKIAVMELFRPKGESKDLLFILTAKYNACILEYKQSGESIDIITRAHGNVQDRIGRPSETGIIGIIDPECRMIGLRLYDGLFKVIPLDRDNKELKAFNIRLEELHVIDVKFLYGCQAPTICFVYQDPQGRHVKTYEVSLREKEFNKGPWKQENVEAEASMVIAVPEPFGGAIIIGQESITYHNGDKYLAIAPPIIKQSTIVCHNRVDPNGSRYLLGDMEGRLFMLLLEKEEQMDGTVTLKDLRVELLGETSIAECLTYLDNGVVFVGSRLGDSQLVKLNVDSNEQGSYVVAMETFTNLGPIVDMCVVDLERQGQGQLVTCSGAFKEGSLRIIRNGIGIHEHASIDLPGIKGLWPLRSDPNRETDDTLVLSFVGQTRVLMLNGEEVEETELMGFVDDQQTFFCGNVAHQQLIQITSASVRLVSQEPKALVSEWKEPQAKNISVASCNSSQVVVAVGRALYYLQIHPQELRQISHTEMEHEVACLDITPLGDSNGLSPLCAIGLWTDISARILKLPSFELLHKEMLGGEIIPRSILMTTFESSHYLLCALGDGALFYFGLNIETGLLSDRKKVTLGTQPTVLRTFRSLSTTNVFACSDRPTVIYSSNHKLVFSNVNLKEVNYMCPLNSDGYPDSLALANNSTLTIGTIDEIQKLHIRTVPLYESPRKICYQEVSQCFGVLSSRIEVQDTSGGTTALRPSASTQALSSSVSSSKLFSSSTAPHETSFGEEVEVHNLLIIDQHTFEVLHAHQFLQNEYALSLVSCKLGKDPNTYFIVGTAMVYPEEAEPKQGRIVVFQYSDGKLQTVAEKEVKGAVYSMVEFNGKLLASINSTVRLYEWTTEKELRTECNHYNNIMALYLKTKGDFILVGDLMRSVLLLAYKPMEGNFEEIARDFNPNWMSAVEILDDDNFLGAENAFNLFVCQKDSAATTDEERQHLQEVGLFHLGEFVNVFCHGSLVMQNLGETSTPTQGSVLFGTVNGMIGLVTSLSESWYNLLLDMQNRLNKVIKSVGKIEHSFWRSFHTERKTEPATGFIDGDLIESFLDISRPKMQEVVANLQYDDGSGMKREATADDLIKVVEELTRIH
Description: (§1) The Prolabel system from DiscoverX was used to develop high-throughput and quantitative assays to measure changes in IKZF1, IKZF2, and GSPT1 protein levels in response to compounds. […] The complementary fragment of beta-galactosidase (from DiscoverX), is added to the prolabel tag to form an active beta galactosidase enzyme whose activity can be precisely measured. In this way, the levels of a fusion protein with the prolabel tag can be quantified in cell lysates.
(§2) Lentiviral vectors, based on the Invitrogen pLenti6.2/V5 DEST backbone, were constructed that placed the prolabel tag upstream of IKZF1, IKZF2, or GSPT1 and expressed the fusion protein from a CMV promoter.
(§3) To ensure moderate and consistent expression of the prolabel fusion proteins across all cells in the population, stable cell lines were constructed from cells expressing a single copy of the construct. Lentivirus packaged with the constructs was made using the Virapower kit from Invitrogen.
(§4) The levels of prolabel tagged fusion proteins in compound treated cell lines were measured as follows: • Day 1, Cells were diluted to 1.0 x 10^6 cells/ml in normal growth medium. 17.5 µL of cells were plated in each well of a solid white 384 well plate. Plates were incubated overnight in a 37 °C tissue culture incubator. • Day 2, Serial dilutions of compounds were made in 384 well plates from 10 mM stocks. 15 µL of DMSO was added to each well of a 384 well plate. In the first column 15µL of stock compound was added. The solution was mixed and 15 µL was transferred to the next column. This was repeated until 20 two-fold dilutions were prepared. 2.5 µL of diluted compounds were transferred into 60 µL of cell culture medium in another 384 well plate, and mixed well. 2.5 µL of this mixture was added to the plated cells. The final DMSO concentration was 0.5% and the highest concentration of compound was 50 µM. Plates were incubated overnight (e.g., about 14 h, 18 h, or 24 h) in a 37 °C tissue culture incubator. • Day 3, Plates were removed from the incubator and allowed to equilibrate at rt for 30 minutes. Prolabel substrate (DiscoverX PathHunter Prolabel Detection Kit, User manual: 93-0180) was added as described by the manufacturers protocols. Plates were incubated at rt for three hours and luminescence was read using an Envision reader (Perkin Elmer) Data was analyzed and visualized using the Spotfire software package.

IKZF1 = IKZF1 (Homo sapiens, UniProt Q13422+Q96SW2); assay: Prolabel quantification of IKZF1 protein levels in 293GT cells; settings: read-out: IKZF1 EC50; Ikaros (IKZF1) degradation, prolabel-tagged fusion protein in 293GT cells; highest concentration 50 µM
IKZF1, sequence (Q13422 whole entry, the tested form may be a part): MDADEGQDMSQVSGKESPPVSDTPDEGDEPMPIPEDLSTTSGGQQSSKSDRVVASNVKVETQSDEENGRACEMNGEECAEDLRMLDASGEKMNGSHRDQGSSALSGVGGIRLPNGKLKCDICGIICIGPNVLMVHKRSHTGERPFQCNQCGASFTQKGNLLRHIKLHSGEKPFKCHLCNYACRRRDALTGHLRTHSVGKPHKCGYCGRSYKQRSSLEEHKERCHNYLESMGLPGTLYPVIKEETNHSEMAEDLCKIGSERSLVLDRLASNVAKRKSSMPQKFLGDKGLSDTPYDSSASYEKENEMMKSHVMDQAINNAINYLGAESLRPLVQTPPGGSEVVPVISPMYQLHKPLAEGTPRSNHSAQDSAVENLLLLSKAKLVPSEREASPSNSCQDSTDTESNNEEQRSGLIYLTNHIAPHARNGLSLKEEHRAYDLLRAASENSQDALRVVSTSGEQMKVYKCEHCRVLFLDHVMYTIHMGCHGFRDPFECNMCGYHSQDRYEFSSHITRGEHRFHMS
IKZF1, sequence (Q96SW2 whole entry, the tested form may be a part): as the sequence (Q96SW2 whole entry, the tested form may be a part) above
IKZF1, sequence (Q16531 whole entry partner, the tested form may be a part): as the sequence (Q16531 whole entry partner, the tested form may be a part) above
Description: as §1, §2, §3, §4

GSPT1 = GSPT1 (Homo sapiens, UniProt P15170+Q96SW2); settings: read-out: GSPT1 EC50; GSPT1 degradation, prolabel-tagged fusion protein in 293GT cells; highest concentration 50 µM
GSPT1, sequence (P15170 whole entry, the tested form may be a part): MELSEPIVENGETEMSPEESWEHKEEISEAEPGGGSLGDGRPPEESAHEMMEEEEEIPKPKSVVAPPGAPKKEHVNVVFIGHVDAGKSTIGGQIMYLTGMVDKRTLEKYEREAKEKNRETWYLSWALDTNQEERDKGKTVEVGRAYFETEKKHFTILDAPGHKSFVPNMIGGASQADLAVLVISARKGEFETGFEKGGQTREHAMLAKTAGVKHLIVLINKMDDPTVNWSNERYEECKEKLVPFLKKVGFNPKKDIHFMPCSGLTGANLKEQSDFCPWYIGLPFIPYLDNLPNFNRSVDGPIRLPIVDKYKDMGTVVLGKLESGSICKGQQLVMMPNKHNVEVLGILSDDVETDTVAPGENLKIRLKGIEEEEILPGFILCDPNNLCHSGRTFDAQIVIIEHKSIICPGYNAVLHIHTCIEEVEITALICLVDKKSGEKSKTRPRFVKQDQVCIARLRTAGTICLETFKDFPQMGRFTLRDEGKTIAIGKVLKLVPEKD
GSPT1, sequence (Q96SW2 whole entry, the tested form may be a part): as the sequence (Q96SW2 whole entry, the tested form may be a part) above
GSPT1, sequence (Q16531 whole entry partner, the tested form may be a part): as the sequence (Q16531 whole entry partner, the tested form may be a part) above
Description: as §1, §2, §3, §4

| Structure (SMILES) | inhibition at 10 µM (IKZF2; 24 h) | DC50 (IKZF2) | DC50 (IKZF1) | DC50 (GSPT1) | IKZF2 % protein reduction at 10 µM, 24 h (IKZF2; 10 µM, 24 h, 293GT cells) |
| --- | --- | --- | --- | --- | --- |
| CN[C@H]1CCC[C@@H]1N(C)c1ccc2c(c1)C(=O)N(C1CCC(=O)NC1=O)C2=O (stereo partly drawn) [Compound I-128, 2-(2,6-dioxopiperidin-3-yl)-5-(methyl((1S,2S)-2-(methylamino)cyclopentyl)amino) isoindoline-1,3-dione] | 30% | > 30 µM | > 30 µM | – | – |
| O=C1CCC(N2Cc3cc(N[C@H]4CCC[C@@H]4N4CCCCC4)ccc3C2=O)C(=O)N1 (stereo partly drawn) [Compound I-14, 3-(1-oxo-5-(((1S,2S)-2-(piperidin-1-yl)cyclopentyl)amino)isoindolin-2-yl)piperidine-2,6-dione] | 40% | 0.73 µM | > 30 µM | – | – |
| O=C1CCC(N2Cc3cc(N[C@H]4CCCC[C@@H]4NCc4ccccc4)ccc3C2=O)C(=O)N1 (stereo partly drawn) [Compound I-3, 3-(5-(((1S,2S)-2-(benzylamino)cyclohexyl)amino)-1-oxoisoindolin-2-yl)piperidine-2,6-dione] | 65% | 0.029 µM | > 30 µM | > 30 µM | – |
| O=C1CCC(N2Cc3cc(N[C@H]4CCCC[C@@H]4OCc4ccccc4)ccc3C2=O)C(=O)N1 (stereo partly drawn) [Compound I-4, 3-(5-(((1S,2S)-2-(benzyloxy)cyclohexyl)amino)-1-oxoisoindolin-2-yl)piperidine-2,6-dione] | – | – | – | > 30 µM | – |
| CN(C)[C@H]1CCCC[C@@H]1Nc1ccc2c(c1)C(=O)N(C1CCC(=O)NC1=O)C2=O (stereo partly drawn) [Compound I-153, 5-(((1S,2S)-2-(dimethylamino)cyclohexyl)amino)-2-(2,6-dioxopiperidin-3-yl)isoindoline-1,3-dione] | 50% | 0.41 µM | > 30 µM | > 50 µM | – |
| CCN[C@H]1CCCC[C@@H]1N(C)c1ccc2c(c1)C(=O)N(C1CCC(=O)NC1=O)C2=O (stereo partly drawn) [Compound I-104, 2-(2,6-dioxopiperidin-3-yl)-5-(((1S,2S)-2-(ethylamino)cyclohexyl)(methyl)amino)isoindoline-1,3-dione] | 80% | 0.049 µM | 0.051 µM | > 50 µM | – |
| CN[C@H]1CCCC[C@@H]1N(C)c1ccc2c(c1F)CN(C1CCC(=O)NC1=O)C2=O (stereo partly drawn) [Compound I-163, 3-(4-fluoro-5-(methyl((1S,2S)-2-(methylamino)cyclohexyl)amino)-1-oxoisoindolin-2-yl)piperidine-2,6-dione] | 80% | 0.066 µM | 0.57 µM | – | – |
| CC(C)CN[C@H]1CCCC[C@@H]1Nc1ccc2c(c1)CN(C1CCC(=O)NC1=O)C2=O (stereo partly drawn) [Compound I-15, 3-(5-(((1S,2S)-2-(isobutylamino)cyclohexyl)amino)-1-oxoisoindolin-2-yl)piperidine-2,6-dione] | 60% | 0.094 µM | > 30 µM | – | – |
| CN[C@H]1CCCC[C@@H]1N(C)c1ccc2c(c1)CN(C1CCC(=O)NC1=O)C2=O (stereo partly drawn) [Compound I-8, 3-(5-(methyl((1S,2S)-2-(methylamino)cyclohexyl)amino)-1-oxoisoindolin-2-yl)piperidine-2,6-dione] | 65% | 0.103 µM | > 50 µM | > 50 µM | – |
| CN(Cc1ccccc1)[C@H]1CCCC[C@@H]1N(C)c1ccc2c(c1)CN(C1CCC(=O)NC1=O)C2=O (stereo partly drawn) [Compound I-6, 3-(5-(((1S,2S)-2-(benzyl(methyl)amino)cyclohexyl)(methyl)amino)-1-oxoisoindolin-2-yl)piperidine-2,6-dione] | 65% | 0.043 µM | > 50 µM | – | – |
| CN[C@H]1CCCC[C@@H]1Nc1ccc2c(c1)CN(C1CCC(=O)NC1=O)C2=O (stereo partly drawn) [Compound I-10, 3-(5-(((1S,2S)-2-(methylamino)cyclohexyl)amino)-1-oxoisoindolin-2-yl)piperidine-2,6-dione] | 50% | 0.99 µM | > 30 µM | > 50 µM | – |
| CCN[C@H]1CCCC[C@@H]1Nc1ccc2c(c1)CN(C1CCC(=O)NC1=O)C2=O (stereo partly drawn) [Compound I-40, 3-(5-(((1S,2S)-2-(ethylamino)cyclohexyl)amino)-1-oxoisoindolin-2-yl)piperidine-2,6-dione] | 45% | 1.67 µM | > 30 µM | – | – |
| N[C@H]1CCCC[C@@H]1Nc1ccc2c(c1)CN(C1CCC(=O)NC1=O)C2=O (stereo partly drawn) [Compound I-7, 3-(5-(((1S,2S)-2-aminocyclohexyl)amino)-1-oxoisoindolin-2-yl)piperidine-2,6-dione] | 30% | 0.183 µM | > 50 µM | – | – |
| CN(c1ccc2c(c1)C(=O)N(C1CCC(=O)NC1=O)C2=O)[C@H]1CCCC[C@@H]1NCc1cccnc1 (stereo partly drawn) [Compound I-143, 2-(2,6-dioxopiperidin-3-yl)-5-(methyl((1S,2S)-2-((pyridin-3-ylmethyl)amino)cyclohexyl)amino)isoindoline-1,3-dione] | 40% | 23.1 µM | > 30 µM | – | – |
| O=C1CCC(N2Cc3cc(N[C@H]4CCCC[C@@H]4NCC4CCCCC4)ccc3C2=O)C(=O)N1 (stereo partly drawn) [Compound I-12, 3-(5-(((1S,2S)-2-((cyclohexylmethyl)amino)cyclohexyl)amino)-1-oxoisoindolin-2-yl)piperidine-2,6-dione] | 65% | 0.036 µM | > 30 µM | – | – |
| CN[C@H]1CCCC[C@@H]1N(C)c1ccc2c(c1)C(=O)N(C1CCC(=O)NC1=O)C2=O (stereo partly drawn) [Compound I-114, 2-(2,6-dioxopiperidin-3-yl)-5-(methyl((1S,2S)-2-(methylamino)cyclohexyl)amino)isoindoline-1,3-dione] | 70% | 0.024 µM | 0.29 µM | > 50 µM | – |
| CN(c1ccc2c(c1)C(=O)N(C1CCC(=O)NC1=O)C2=O)[C@H]1CCCC[C@@H]1NCC1(C(F)(F)F)CC1 (stereo partly drawn) [Compound I-138, 2-(2,6-dioxopiperidin-3-yl)-5-(methyl((1S,2S)-2-(((1-(trifluoromethyl)cyclopropyl)methyl)amino)cyclohexyl)amino)isoindoline-1,3-dione] | 30% | – | > 30 µM | – | – |
| CN[C@@H]1CCCC[C@H]1N(C)c1ccc2c(c1)CN(C1CCC(=O)NC1=O)C2=O (stereo partly drawn) [Compound I-2, 3-(5-(methyl((1R,2R)-2-(methylamino)cyclohexyl)amino)-1-oxoisoindolin-2-yl)piperidine-2,6-dione] | 0% | > 30 µM | > 30 µM | > 30 µM | – |
| CN(c1ccc2c(c1)C(=O)N(C1CCC(=O)NC1=O)C2=O)[C@H]1CCCC[C@@H]1N (stereo partly drawn) [Compound I-99, 5-(((1S,2S)-2-aminocyclohexyl)(methyl)amino)-2-(2,6-dioxopiperidin-3-yl)isoindoline-1,3-dione] | 70% | 0.15 µM | 5.2 µM | > 50 µM | – |
| CN(c1ccc2c(c1)C(=O)N(C1CCC(=O)NC1=O)C2=O)[C@H]1CCCC[C@@H]1NCC(=O)O (stereo partly drawn) [Compound I-148, ((1S,2S)-2-((2-(2,6-dioxopiperidin-3-yl)-1,3-dioxoisoindolin-5-yl)(methyl)amino)cyclohexyl)glycine] | 40% | 11.3 µM | > 30 µM | – | – |
| CC(C)N[C@H]1CCCC[C@@H]1Nc1ccc2c(c1)CN(C1CCC(=O)NC1=O)C2=O (stereo partly drawn) [Compound I-45, 3-(5-(((1S,2S)-2-(isopropylamino)cyclohexyl)amino)-1-oxoisoindolin-2-yl)piperidine-2,6-dione] | 70% | 0.1 µM | > 30 µM | > 50 µM | – |
| CN[C@@H]1CCCC[C@H]1N(C)c1ccc2c(c1)CN(C1CCC(=O)NC1=O)C2=O (relative stereo) [Compound I-9, trans-3-(5-(methyl(-2-(methylamino)cyclohexyl)amino)-1-oxoisoindolin-2-yl)piperidine-2,6-dione] | – | 0.113 µM | > 50 µM | > 50 µM | 65% |
| CN(C)[C@H]1CCCC[C@@H]1N(C)c1ccc2c(c1)C(=O)N(C1CCC(=O)NC1=O)C2=O (stereo partly drawn) [Compound I-96, 5-(((1S,2S)-2-(dimethylamino)cyclohexyl)(methyl)amino)-2-(2,6-dioxopiperidin-3-yl)isoindoline-1,3-dione] | 50% | 1.57 µM | 2.37 µM | > 50 µM | – |
| O=C1CCC(N2Cc3cc(N[C@H]4CCCC[C@@H]4O)ccc3C2=O)C(=O)N1 (stereo partly drawn) [Compound I-1, 3-(5-(((1S,2S)-2-hydroxycyclohexyl)amino)-1-oxoisoindolin-2-yl)piperidine-2,6-dione] | 20% | – | > 30 µM | > 30 µM | – |
| CN(c1ccc2c(c1)C(=O)N(C1CCC(=O)NC1=O)C2=O)[C@H]1CCCC[C@@H]1NCc1ccccc1 (stereo partly drawn) [Compound I-133, 5-(((1S,2S)-2-(benzylamino)cyclohexyl)(methyl)amino)-2-(2,6-dioxopiperidin-3-yl)isoindoline-1,3-dione] | 75% | 0.45 µM | > 30 µM | – | – |
| CCN[C@H]1CCCC[C@@H]1N(CC)c1ccc2c(c1)CN(C1CCC(=O)NC1=O)C2=O (stereo partly drawn) [Compound I-55, 3-(5-(ethyl((1S,2S)-2-(ethylamino)cyclohexyl)amino)-1-oxoisoindolin-2-yl)piperidine-2,6-dione] | 10% | – | > 30 µM | – | – |
| CN[C@H]1CCCCC[C@@H]1N(C)c1ccc2c(c1)C(=O)N(C1CCC(=O)NC1=O)C2=O (stereo partly drawn) [Compound I-109, 2-(2,6-dioxopiperidin-3-yl)-5-(methyl((1S,2S)-2-(methylamino)cycloheptyl)amino)isoindoline-1,3-dione] | 70% | 0.23 µM | > 30 µM | > 50 µM | – |
